{"source": "patent US9717721B2", "about": "“Use of aryl-quinolin derivatives as inhibitors of vasculogenic mimicry” (TaiRx Inc., priority 2015, dated 2017)", "key": {"[1]": {"tested_on": "phosphorylated Smad2 (P-Smad2)", "assay": "Immunoblotting of phosphorylated Smad2 in C8161 cells", "assay_type": "cell-based, human", "conditions": "10 nM", "procedure": "(§1) To further understand how TRX-818 alters the signaling pathways required for VM network formation, the protein levels of Pro-Nodal, Smad2, and phosphorylated Smad2 (P-Smad2) were determined using immunoblotting analysis. On the day of study, TRX-818 was prepared as described in Example 1, C8161 cells were untreated (control) or treated with 10 nM TRX-818 for 1, 4, 8, and 24 h. Protein expression of Nodal and total Smad2, and P-Smad2 was analyzed by immunoblotting analysis, 5×10^6 aggressive human melanoma (C8161) cells were seeded onto a plastic dish in the presence of 10 nM TRX-818, and total proteins were collected for analysis. To quantify the protein levels of Nodal and P-Smad2, 40 μg and 25 μg of total proteins were used for SDS-PAGE and immunoblotting, respectively. The protein level of β-actin was used for normalization to assure equal protein loading."}, "[2]": {"tested_on": "Nodal", "assay": "qRT-PCR mRNA level of Nodal in C8161 cells", "assay_type": "cell-based, human", "conditions": "10 nM", "procedure": "(§2) To determine whether TRX-818 reduced the VM network formation by altering the levels of the essential proteins for VM, its effect on Nodal, Notch4, VE-cadherin (CDHE5) or ephrin receptor A2 (Eph A2) expression was determined using qRT-PCR. 2×10^6 of aggressive human melanoma (C8161) cells were treated with 10 nM TRX-818 for 8, 24, 48, or 72 h. Sterile deionized water (tissue-culture grade) was used as vehicle."}, "[3]": {"tested_on": "Pro-Nodal", "assay": "Immunoblotting of Pro-Nodal protein in C8161 cells", "assay_type": "cell-based, human", "conditions": "10 nM", "procedure": "as §1"}, "[4]": {"tested_on": "VE-cadherin (CDH5)", "assay": "qRT-PCR mRNA level of CDH5 in C8161 cells", "assay_type": "cell-based, human", "conditions": "10 nM", "procedure": "as §2"}, "[5]": {"tested_on": "Aggressive human melanoma (C8161 or SK-MEL28) cells", "assay": "Quantification of number of junctions and total tubule length of VM formation (Angiosys)", "assay_type": "cell-based", "procedure": "(§3) Aggressive human melanoma (C8161 or SK-MEL28; 1×10^5) cells were seeded into a three-dimensional polymerized MATRIGEL™ (75 μl) for VM network analysis. C8161 or SK-MEL28 cells were treated for 24 h with 0.5, 1, 5, 10, 25 or 50 or 100 nM of TRX-818 at 5 or 24 h after cell attachment. Another set of melanoma cells were seeded onto a plastic dish and treated for the same amount of time before the cell viability of C8161 or SK-MEL28 cells was determined using the Guava Nexin Assay (Millipore, USA).\n(§4) The VM network image was taken using a confocal laser scanning microscope equipped with an environmental, chamber to track the response of cancer cells to the test compound. The images were then digitized and subsequently analyzed using the Angiosys software. Four images per sample were analyzed to quantify the number of junctions and total tubule length of VM formation. Changes were presented in percentage relative to the vehicle control. Sterile deionized water (tissue-culture grade) was used as the vehicle control."}, "[6]": {"tested_on": "HCT-116 orthotopic human colon cancer xenograft", "assay": "HCT-116 orthotopic human colon cancer xenograft model", "assay_type": "in vivo, mice", "conditions": "for animals found dead prior to study termination: ten mice/group", "procedure": "The inhibitory effect of TRX-818 on tumor growth and VM formation of HCT-116, a highly metastatic colon tumor, was examined in a HCT-116 orthotopic xenograft model. The effect of TRX-818 was evaluated on the formation of the vascular or vascular-like (vasculogenic mimicry, VM) network by immunohistochemistry staining (IHC) in orthotopic xenograft human colon cancer model inoculated with HCT116 colon cancer cell lines\nSix groups were set in this study (ten mice/group). There were: Group 1, TRX-818 at 20 mg/kg given as oral administration; Group 2, TRX-818 at 50 mg/kg given as oral administration; Group 3, TRX-818 at 100 mg/kg given as oral administration; Group 4, TRX-818 at 20 mg/kg given as intravenous injection; Group 5, Irinotecan at 50 mg/kg given as intraperitoneal injection; Group 6, vehicle group. Dose schedule for G1, G2, G3 and G6 was QD×28 and for G4 was QOD×7. Body weights were monitored for safety evaluation. Tumor size and tumor weight were measured at the end of in-life study. The percentage of tumor growth inhibition (TGI %) was calculated at the termination of the study for anti-tumor effect evaluation. The average body weight of study mice on Day 1 was ˜20 gram and decreased to ˜17-19 gram at the end of study (Day 42)\nAt the end of 28-day dosing, CO2 anesthesia (1 min) followed by cervical dislocation was used for mice euthanasia in the study prior to tumors and lungs excision. First, a ventral midline incision was made and colon with primary tumor was excised and collected. The tumor collection was completed in 3 minutes after euthanasia. The tissues were rinsed with PBS to remove the blood before fixation.\nThe number of channels with CD31^+/red blood cell (RBC)^+ or CD31^−/RBC^+ were counted on the whole section of each sample in each group, and the number of vessels with CD31 positive or negative staining were counted based on 5 light fields (200×) under microscope. The vascular network represented by the CD31^+/RBC^+ staining whereas the VM network represented by CD31^−/RBC^+ staining, because the VM formation is independent of vascular endothelial cells. The scoring was conducted by blinded, objective observer."}, "[7]": {"tested_on": "Notch4 intracellular domain (Notch 4 ICD)", "assay": "qRT-PCR mRNA level of Notch4 ICD in C8161 cells", "assay_type": "cell-based, human", "conditions": "10 nM", "procedure": "as §2"}, "[8]": {"tested_on": "Smad2", "assay": "Immunoblotting of total Smad2 in C8161 cells", "assay_type": "cell-based, human", "conditions": "10 nM", "procedure": "as §1"}, "[9]": {"tested_on": "C8161 aggressive melanoma cells", "assay": "VM network formation in three-dimensional MATRIGEL, C8161 cells", "assay_type": "cell-based, human", "conditions": "24 h treatment", "procedure": "as §3, §4\nAggressive human melanoma (C8161, 7.5×10^4) cells were seeded as disclosed in Example 1. C8161 cells were treated tor 4 h or 24 h with 0.3, 1 or 5 nM of TRX-818M1. Another set of melanoma cells were seeded onto a plastic dish and treated for the same amount of time before the cell viability of C8161 cells was determined."}, "[10]": {"tested_on": "SK-MEL28 cancer cells", "assay": "VM network formation in three-dimensional MATRIGEL, SK-MEL28 cells", "assay_type": "cell-based, human", "conditions": "24 h treatment", "procedure": "as §3, §4"}}, "data": [{"molecule": "COc1ccc2[nH]c(-c3cccc(F)c3)cc(=O)c2c1OP(=O)(O)O", "note": "[TRX-818, 2-(3-fluorophenyl)-6-methoxy-4-oxo-1,4-dihydroquinolin-5-yl phosphate]", "values": [{"measurement": "P-Smad2/Smad2 post-treatment protein level (relative to untreated control cells)", "setting": "[1]; 1 hour", "result": "−33", "unit": "%"}, {"measurement": "P-Smad2 post-treatment protein level (relative to untreated control cells)", "setting": "[1]; 1 hour", "result": "−4", "unit": "%"}, {"measurement": "P-Smad2/Smad2 post-treatment protein level (relative to untreated control cells)", "setting": "[1]; 4 hours", "result": "−60", "unit": "%"}, {"measurement": "P-Smad2 post-treatment protein level (relative to untreated control cells)", "setting": "[1]; 4 hours", "result": "−57", "unit": "%"}, {"measurement": "P-Smad2/Smad2 post-treatment protein level (relative to untreated control cells)", "setting": "[1]; 8 hours", "result": "−40", "unit": "%"}, {"measurement": "P-Smad2 post-treatment protein level (relative to untreated control cells)", "setting": "[1]; 8 hours", "result": "−39", "unit": "%"}, {"measurement": "P-Smad2/Smad2 post-treatment protein level (relative to untreated control cells)", "setting": "[1]; 24 hours", "result": "−76", "unit": "%"}, {"measurement": "P-Smad2 post-treatment protein level (relative to untreated control cells)", "setting": "[1]; 24 hours", "result": "−73", "unit": "%"}, {"measurement": "decrease of Nodal mRNA level compared to control", "setting": "[2]; 8 hours", "result": 80, "unit": "%"}, {"measurement": "mrna remaining at 0.01 µM", "setting": "[2]; Homo sapiens, 72 h, read-out: Nodal mRNA level remaining, % of control cells", "result": 70, "unit": "%"}, {"measurement": "decrease in Pro-Nodal protein level vs control cells", "setting": "[3]; 24 h", "result": 63, "unit": "%"}, {"measurement": "decrease in Pro-Nodal protein level vs control cells", "setting": "[3]; four to eight hours", "result": 28, "unit": "%"}, {"measurement": "decrease in Nodal protein expression (detected as Pro-Nodal) vs control cells", "setting": "[3]; one hour", "result": 4, "unit": "%"}, {"measurement": "decrease of CDH5 mRNA level compared to control", "setting": "[4]; 8 hours", "result": 70, "unit": "%"}, {"measurement": "mrna remaining at 0.01 µM", "setting": "[4]; Homo sapiens, 72 hours, read-out: CDH5 mRNA level remaining, % of control cells", "result": 50, "unit": "%"}, {"measurement": "No. of junctions, relative to vehicle control", "setting": "[5]; 1 nM", "result": "−16.5", "unit": "%"}, {"measurement": "Total tubule length, relative to vehicle control", "setting": "[5]; 1 nM", "result": "−15.1", "unit": "%"}, {"measurement": "No. of junctions, relative to vehicle control", "setting": "[5]; 5 nM", "result": "−43.1", "unit": "%"}, {"measurement": "Total tubule length, relative to vehicle control", "setting": "[5]; 5 nM", "result": "−23.3", "unit": "%"}, {"measurement": "maximal reduction of cell junctions", "setting": "[5]; 5 nM", "result": 43, "unit": "%"}, {"measurement": "No. of junctions, relative to vehicle control", "setting": "[5]; 10 nM", "result": "−35.9", "unit": "%"}, {"measurement": "Total tubule length, relative to vehicle control", "setting": "[5]; 10 nM", "result": "−26.0", "unit": "%"}, {"measurement": "No. of junctions, relative to vehicle control", "setting": "[5]; 50 nM", "result": "−42.9", "unit": "%"}, {"measurement": "Total tubule length, relative to vehicle control", "setting": "[5]; 50 nM", "result": "−47.5", "unit": "%"}, {"measurement": "maximal reduction of total tubule length", "setting": "[5]; 50 nM", "result": 48, "unit": "%"}, {"measurement": "animals found dead prior to study termination", "setting": "[6]; 20 mg/kg QOD group (intravenous)", "result": "two"}, {"measurement": "animals found dead prior to study termination", "setting": "[6]; 50 mg/kg QD group", "result": "one"}, {"measurement": "reduction of tumor volume compared to the vehicle group", "setting": "[6]; 50 mg/kg oral QD×28, Day 43 post tumor inoculation", "result": 49, "unit": "%"}, {"measurement": "Average number of channels (CD31−/RBC+, VM) in the whole tumor section per group, Mean ± SEM", "setting": "[6]; 100 mg/kg QD×28, p.o.", "result": "0.8 ± 0.3"}, {"measurement": "MED (Minimum Effective Dose)", "setting": "[6]; orally administered", "result": 50, "unit": "mg/kg"}, {"measurement": "decrease of Notch4 ICD mRNA level compared to control", "setting": "[7]; 8 hours", "result": 75, "unit": "%"}, {"measurement": "mrna remaining at 0.01 µM", "setting": "[7]; Homo sapiens, 72 h, read-out: Notch4 ICD mRNA level remaining, % of control cells", "result": 50, "unit": "%"}, {"measurement": "Smad2 post-treatment protein level (relative to untreated control cells)", "setting": "[8]; 1 hour", "result": "+43%"}, {"measurement": "Smad2 post-treatment protein level (relative to untreated control cells)", "setting": "[8]; 4 hours", "result": "+9%"}, {"measurement": "Smad2 post-treatment protein level (relative to untreated control cells)", "setting": "[8]; 8 hours", "result": "+3%"}, {"measurement": "Smad2 post-treatment protein level (relative to untreated control cells)", "setting": "[8]; 24 hours", "result": "+13%"}, {"measurement": "concentration at which VM network formation was inhibited", "setting": "[9]", "result": "5 to 10", "unit": "nM"}, {"measurement": "concentration at which VM network formation was inhibited", "setting": "[10]", "result": "5 to 10", "unit": "nM"}]}]}
